According to patent publication US7169818B2, “Lysophosphatidic acid receptor agonists and antagonists” (University of Virginia Patent Foundation, priority 2000, dated 2007):
“Also recorded” adds a separate entry of the source. One block for each compound: values may come before it.

Columns and labels:
human LPA3 [1] = target: T1, human LPA3 (Homo sapiens, UniProt Q9UBY5); assay: GTP[γ35S] binding, LPA3-transfected HEK293T cell membranes; type: biochemical; design: expressed in transfected cells; host or cells: HEK293T (transient)
T1 sequence (Q9UBY5 1-353): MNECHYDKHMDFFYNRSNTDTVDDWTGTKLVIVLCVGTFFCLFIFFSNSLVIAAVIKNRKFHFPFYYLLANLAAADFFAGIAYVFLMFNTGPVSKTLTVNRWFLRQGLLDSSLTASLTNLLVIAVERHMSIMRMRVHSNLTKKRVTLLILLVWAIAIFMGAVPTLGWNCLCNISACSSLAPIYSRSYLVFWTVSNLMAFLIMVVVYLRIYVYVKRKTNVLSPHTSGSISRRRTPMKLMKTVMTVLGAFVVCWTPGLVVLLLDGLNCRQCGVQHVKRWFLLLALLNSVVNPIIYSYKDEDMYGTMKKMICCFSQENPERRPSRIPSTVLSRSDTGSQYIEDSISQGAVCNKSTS
Experimental: (§1) The appropriate receptor plasmid DNA (encoding mouse LPA1, human LPA2 or human LPA3) was mixed with equal amounts of expression plasmids (pcDNA3) encoding a mutated (C351F) rat Gi2a, cow β1, and γ2 proteins and these DNAs were used to transfect monolayers of HEK293T cells (where ‘T’ indicates expression of the SV-40 virus large T antigen) using the calcium phosphate precipitate method. After about 60 hours, cells were harvested, membranes were prepared, aliquoted and stored at −70° C. until use.
(§2) The GTP[35 γS] assay was performed as described by us previously. Membranes containing 5 ug of protein were incubated in 0.1 ml GTP-binding buffer (in mM: HEPES 50, NaCl 100, MgCl2 10, pH7.5) containing […], […], 0.1 nM GTP[35 γS] (1200 Ci/mmol), and indicated lipid(s) for 30 minutes at 30° C. Samples were analyzed for membrane-bound radionuclide using a Brandel Cell Harvester (Gaithersburg, Md.).
(§3) The X-intercept of the linear transformation is equal to the inverse log of the KI.
(§4) Membranes prepared from these cells are used to measure GTPγ[^35S] binding as a function of test compound concentration. The resulting dose-response curves provide relative potency (EC50) and efficacy (Emax) for the test compounds.

human LPA2 [2] = target: T2, human LPA2 (Homo sapiens, UniProt Q9HBW0); assay: GTP[γ35S] binding, LPA2-transfected HEK293T cell membranes; type: biochemical; design: expressed in transfected cells; host or cells: HEK293T (transient); conditions: for antagonist activity at LPA2: block of LPA-induced GTP[γ35S] binding
Experimental: as §1, §2, §4

mouse LPA1 [3] = target: T3, mouse LPA1 (Mus musculus, UniProt P61793); assay: GTP[γ35S] binding, LPA1-transfected HEK293T (or RH7777) cell membranes; type: biochemical; design: expressed in transfected cells; host or cells: HEK293T (transient); for part of the results RH7777 membranes
Experimental: as §1, §2, §3, §4

LPA receptors = assay: whole cell assays of calcium mobilization or inhibition of cAMP accumulation, agonist activity; type: cell-based
Experimental: (§5) Assays for cAMP accumulation were conducted on populations of 5×10^5 cells stimulated with […] in the presence of the phosphodiesterase inhibitor isomethylbutylxanthine (IBMX) for 15 minutes at 30° C. cAMP was measured by automated radioimmunoassay.
A FLIPR™ (Molecular Devices, Inc.) was used to measure intracellular calcium in A431 and HEK293T cells. A431 cells were seeded (˜50,000 cells/well) in 96-well clear bottom black microplates (Corning Costar Corp., Cambridge, Mass.) and left overnight in CO2 incubator at 37° C. HEK293T cells were treated likewise, but seeded onto poly D-lysine coated microplates (Becton Dickinson, Franklin Lakes, N.J.). A431 cells were dye-loaded with 4 μM Fluo-3 AM ester (Molecular Probes Inc., Eugene, Oreg.) in a loading buffer (1×HBSS buffer, pH 7.4, containing 20 mM HEPES, 0.1% BSA, and 2.5 mM probenecid) for 1 hour at 37° C. Cells were then washed four times with the loading buffer and exposed in the FLIPR™ to sets of compounds. HEK293T cells were loaded with 2 μM Fluo-4 AM ester (Molecular Probes Inc., Eugene, Oreg.) in the same loading buffer without probenecid for 30 minutes and washed four times before being exposed to compounds in the FLIPR™. In all cases, each concentration of each compound was tested in at least quintuplicate.

mouse LPA1 [4] = target: T3, mouse LPA1; assay: cAMP accumulation in RH7777 cells stably expressing LPA1; type: cell-based; design: expressed in transfected cells
Experimental: as §5
Rat hepatoma RH7777 cell monolayers were transfected with the mLPAI plasmid DNA using the calcium phosphate precipitate method and clonal populations expressing the neomycin phosphotransferase gene were selected by addition of geneticin (G418) to the culture media. The RH7777 cells were grown in monolayers at 37° C. in a 5% CO02/95% air atmosphere in growth media consisting of: 90% MEM, 10% fetal bovine serum, 2 mM glutamine and 1 mM sodium pyruvate.
(§6) wls-b8L and the other phosphonates were also tested also for activity in three whole cell assays. […] Finally, the activity of wls-b8L in activating a chloride conductance in Xenopus laevis ooctyes was measured.

human LPA1 = target: T4, human LPA1 (Homo sapiens, UniProt Q92633); assay: GTP[γ35S] binding, baculovirus-infected insect Sf9 cell membrane preparation; type: biochemical
T4 construct: expressed in transfected cells; host or cells: Sf9 insect cells, recombinant baculovirus
Experimental: The same activity was determined with human LPA1 using a recombinant baculovirus-infected insect Sf9 cell membrane preparation.

[5] = test system: renal injury following ischemia-reperfusion; assay: renal ischemia-reperfusion model; type: in vivo, C57BL6 mice; conditions: 1 mg/kg/2 hr
Experimental: C57BL6 mice (20 gm, 8 wks of age) were used for all studies. The surgical protocol of renal IR has been previously described (Okusa et al., 1999. Am J. Physiol. (Renal Physiol.) 277: F404–412; Okusa, et al., 2000 Am. J. Physiol. (Renal Physiol.) 279; F809–F818, and Okusa et al., 2001 Kidney Int. 59:2114–2125). For the injury protocol, bilateral flank incisions were made under anesthesia with a regimen that consists of ketamine (100 mg/kg, ip.), xylazine (10 mg/kg, ip.) and acepromazine (1 mg/kg, im.). Renal pedicles were exposed and cross-clamped for 27–32 min. Kidneys were examined for immediate reperfusion following clamp removal. Wounds were closed and mice were returned to cages. […] The mice were sacrificed and the kidneys harvested at 1, 4, 8, 24, 48 hrs, 5 and 7 days. […] Mice were sacrificed following 24 hrs of reperfusion and plasma was obtained for BUN and creatinine.

human LPA2 [6] = target: T2, human LPA2; assay: chloride conductance in Xenopus oocytes injected with human LPA2 mRNA; type: cell-based; design: expressed in transfected cells; host or cells: Xenopus laevis oocytes, mRNA injection; conditions: 10 μM applied to the oocyte surface
Experimental: as §6

human platelets = assay: platelet aggregation; type: cell-based; conditions: concentrations up to 10 micromolar
Xenopus laevis ooctyes = assay: chloride conductance / depolarization in Xenopus oocytes, endogenous receptor; type: cell-based; conditions: uninjected Xenopus oocytes
Experimental: as §6

human LPA3 [7] = target: T1, human LPA3; assay: chloride conductance in Xenopus oocytes injected with human LPA3 mRNA; type: cell-based; design: expressed in transfected cells; host or cells: Xenopus laevis oocytes, mRNA injection; conditions: 10 μM applied to the oocyte surface
Experimental: as §6

[8] = efficacy compared to LPA (LPA = 100)
[9] = block of LPA-induced GTP[γ35S] binding

T2 sequence (Q9HBW0 whole entry): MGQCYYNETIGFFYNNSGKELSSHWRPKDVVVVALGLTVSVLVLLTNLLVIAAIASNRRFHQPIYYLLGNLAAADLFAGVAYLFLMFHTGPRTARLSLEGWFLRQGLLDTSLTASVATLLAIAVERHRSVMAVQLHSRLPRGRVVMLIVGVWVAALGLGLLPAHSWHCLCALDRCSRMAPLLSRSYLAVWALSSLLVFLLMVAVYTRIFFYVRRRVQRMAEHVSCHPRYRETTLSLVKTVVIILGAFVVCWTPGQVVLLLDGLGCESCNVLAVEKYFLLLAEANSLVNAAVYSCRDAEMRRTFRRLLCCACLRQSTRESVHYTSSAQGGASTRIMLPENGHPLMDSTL
T3 sequence (P61793 whole entry): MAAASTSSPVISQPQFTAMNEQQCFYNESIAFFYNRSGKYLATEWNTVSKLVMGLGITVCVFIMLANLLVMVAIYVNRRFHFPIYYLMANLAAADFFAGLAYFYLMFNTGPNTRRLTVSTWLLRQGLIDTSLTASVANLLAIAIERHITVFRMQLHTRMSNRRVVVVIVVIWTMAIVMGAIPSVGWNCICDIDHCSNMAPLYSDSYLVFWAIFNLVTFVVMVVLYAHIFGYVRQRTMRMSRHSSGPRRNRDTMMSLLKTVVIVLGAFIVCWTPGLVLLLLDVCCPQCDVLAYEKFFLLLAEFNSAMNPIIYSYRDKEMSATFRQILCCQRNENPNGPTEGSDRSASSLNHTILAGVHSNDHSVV
T4 sequence (Q92633 whole entry): as the sequence (P61793 whole entry) above, with A4I, S8I, Q22P, Y40H, V61I, D193E, H194N, V269I, N331S, N335T counted along it

Compound: CCCCCCCC/C=C\CCCCCCCC(=O)N[C@@H](CC)COP(=O)(O)O [VPC12115]
- EC50 (human LPA3 [1]; agonist activity, GTP[γ35S] binding, read-out: LP A3 EC50): 4.98 µM
- LP A3 Emax (human LPA3 [1]; [8]): 89.3
- EC50 (human LPA2 [2]; agonist activity, GTP[γ35S] binding, read-out: LP A2 EC50): 4.28 µM
- LP A2 Emax (human LPA2 [2]; [8]): 85.6
- EC50 (mouse LPA1 [3]; agonist activity, GTP[γ35S] binding, read-out: LP A1 EC50): 1.58 µM
- LP A1 Emax (mouse LPA1 [3]; [8]): 62.3

Compound: CCCCCCCC/C=C\CCCCCCCC(=O)N[C@H](CN)COP(=O)(O)O [VPC12178]
- agonist potency relative to LPA at LPA1 (mouse LPA1 [3]; GTP[γ35S] binding): more potent than 1-oleoyl LPA

Compound: CCCCCCCC/C=C\CCCCCCCC(=O)N[C@H](COP(=O)(O)O)Cc1ccc(OCc2ccccc2)cc1 [VPC12249]
- antagonist activity at LPA3 (human LPA3 [1]; [9]): surmountable antagonist
- agonist activity in whole cell assays (LPA receptors): completely devoid of agonist activity
- antagonist activity at LPA2 (human LPA2 [2]): lack of antagonist activity
- block of the inhibition of forskolin-induced increases in cAMP levels (mouse LPA1 [4]; RH7777 cells stably expressing LPA1): inhibited
- antagonist activity at human LPA1 (human LPA1): same activity
- tissue preservation, H and E sections [5]: marked degree of tissue preservation
- antagonist activity at LPA1 (mouse LPA1 [3]; [9]): surmountable antagonist

Second part, led by results:

- agonist potency relative to LPA at LPA1 (mouse LPA1 [3]; GTP[γ35S] binding): more potent than 1-oleoyl LPA
Compound: CCCCCCCC/C=C\CCCCCCCC(=O)N[C@H](CO)COP(=O)(O)O [VPC31143]

- agonist activity / efficacy relative to LPA at LPA3 (human LPA3 [1]; GTP[γ35S] binding): agonist
- antagonist activity at LPA2 (human LPA2 [2]): antagonist activity
- agonist activity / efficacy relative to LPA at LPA1 (mouse LPA1 [3]; GTP[γ35S] binding): agonist
Compound: CCCCCCCC/C=C\CCCCCCCC(=O)N[C@@H](COP(=O)(O)O)Cc1ccc(OCc2ccc(CCCCC)cc2)cc1 [VPC31162]

- activation of chloride conductance, human LPA2 mRNA injected (human LPA2 [6]): very modest response
- activation of chloride conductance, endogenous receptor (Xenopus laevis ooctyes): does not evoke this response
- inhibition of cAMP accumulation (agonist efficacy) (mouse LPA1 [4]; concentration of 1 μM): fully efficacious
- activation of chloride conductance, human LPA3 mRNA injected (human LPA3 [7]): very modest response
Compound: CCCCCCCC/C=C\CCCCCCCC(=O)NCCCP(=O)(O)O [wls-b8L, (9Z)-N-(3-phosphonopropyl)Octadec-9-enamide]
- aggregation of human platelets (human platelets): does not elicit aggregation
- receptor-type selectivity of agonist activity (LPA1 vs LPA2, LPA3) (mouse LPA1 [3]; GTP[γ35S] binding): more potent and efficacious at LPA1 than at either LPA2 or LPA3; also recorded: distinctly more selective regarding its agonist activity at a single LPA receptor (LPA1)
